The values that follow come from a melting point compilation (Tetko et al.; mined from patent text by program, amines drawn as free bases though some values may be those of a salt).

Some results are limits rather than exact numbers.

As a reminder, the melting point is the temperature, or range, at which the solid turns liquid.

As for `Cc1nc(-n2cnn(CC3CC3)c2=O)sc1C(=O)NCc1cocn1`, the melting point fell in the range of 157 to 158 °C. The same measure for `O=C1C=C2C=CC=C2O1`: 81 to 83 °C. `COC(=O)c1cn(-c2ccc(OC(C)=O)cc2C)c(C=O)cc1=O` displayed a melting point of 216 to 217 °C. The same measure for `COC(=O)[C@H](Cc1ccc(O)cc1)NC(=O)C1(NC(=O)[C@@H](SC(C)=O)C(C)C)CCCC1`: 157 to 158 °C; for `COC(=O)CSc1nc(N2CCN(c3ncccn3)CC2)ncc1[N+](=O)[O-]`: 250 to 252 °C; for `CCC(=O)OC1(C(=O)CCl)CCC2C3CCC4CC(=O)CCC4(C)C3(F)C(=O)CC21C` (stereo unspecified): 168 °C.

In the case of `CCN1C(Cl)=NC(C)=NS1(=O)=O`, the melting point lay within 57 to 59 °C. The same measure for `CCCCCCCCCC(O)CNCCCCCCNCC(O)CCCCCCCCC` (stereo unspecified): 123 to 129 °C; for `O=c1[nH]c(C(F)(F)F)nc2ccc(S(=O)(=O)O)cc12`: over 330 °C.

The compound `Cc1ccc(NS(=O)(=O)c2cccc(C#N)c2)c2[nH]cc(C#N)c12` registered a melting point of 220 to 221 °C.

Consider `O=C(c1c[nH]c2ccc(Br)cc12)C(F)(F)F`, for which the melting point was determined as 254 °C. Compound `OCc1cccc(Cc2c[nH]cn2)c1O` returned a melting point of 152 to 155 °C.

`Cc1cccc(C(=O)Nc2cn(C3CCCCO3)nc2C(=O)NCCC#N)n1` (stereo unspecified): the melting point is 186 to 187 °C. The same measure for `CCOC(=O)C1CCCN(S(=O)(=O)c2ccc3[nH]c(=O)c4cccc5c4c3c2C5)C1` (stereo unspecified): 215 to 218 °C; for `CCCCCCOc1c(OC)cc(N)c2nccc(C)c12`: 69 to 71 °C. The same measure for `CN1CCn2nc(Nc3cc(Cl)nn(C)c3=O)cc2C1`: 175 to 176 °C. As for `CC(C)N1CCOC(CN2C(=O)C3(COc4cc5c(cc43)OCCO5)c3ccccc32)C1` (stereo unspecified), the melting point lay in the range of 102 to 125 °C. The same measure for `NCc1ccc(F)cc1C(F)(F)C(F)(F)c1ccccc1`: 52.5 to 54 °C. Compound `CCCc1c(OCCCSc2nnc(SCC(=O)OCC)s2)ccc(C(C)=O)c1O` had a melting point of 71 to 72.5 °C. The same measure for `CCOC(=O)COC(=O)COc1ccc(OCC(=O)OCC)cc1NC(=O)c1ccc(OCCCCc2ccccc2)cc1`: 64 °C. Turning to `COc1cc(-c2cnn3c(-c4cccc(NC(=O)CC(C)C)c4)ccnc23)cc(OC)c1OC`, the melting point was 86 to 90 °C. The same measure for `CCN(CC)C(=O)OCC1CN(C(=O)c2cc(OC)c(OC)c(OC)c2)CCN1C(=S)c1cc(OC)c(OC)c(OC)c1` (stereo unspecified): 175 °C.

For the compound `CN(C(=O)c1nsc2ccc(-n3c(=O)cc(C(F)(F)F)n(C)c3=O)cc12)S(C)(=O)=O`, the melting point fell in the range of 120 to 122 °C. The same measure for `CC(=O)OS(=O)(=O)OC(C)=O`: 228 °C; for `COc1ccc(-c2ccc3c(C(=O)c4ccn5c4CSC5c4cccnc4)c[nH]c3c2)cc1` (stereo unspecified): 246 to 248 °C. The same measure for `CCCOc1ccc(CNC=C2C(=O)N(O)C(=O)c3ccccc32)cc1O`: 176 to 178 °C. The same measure for `Cc1cccc(C)c1-c1cccc(C(N)=O)c1`: 123 to 125 °C; for `CCC#CCOc1cc2c(cc1/C=C/c1ccc(C(=O)OCC)cc1)C(C)(C)CCC2(C)C`: 80 to 82 °C; for `CCOC(=O)c1oc(C)c(O)c1O`: 120 to 121 °C. `O=C(OCc1ccccc1)c1ccc(O)cc1O` gave a melting point of 83 to 88 °C. Take `CC(C(=O)O)c1ccc(C2CCCCC2)c2ccccc12` (stereo unspecified): the melting point amounted to 150 °C. The same measure for `CCCCCCCCCCCCCCCC1=CC=CC(=O)C12CO2` (stereo unspecified): 45 to 47 °C.

Compound `CC[C@H]1CC[C@H](CCc2ccc(C(=O)CCC(=O)O)cc2)CC1` registered a melting point of 141 to 143 °C. The same measure for `COc1cc(Nc2c(C#N)cnc3cc(OCCCN4CCN(C)CC4)c(OC)cc23)c(Cl)cc1Cl`: 116 to 120 °C; for `FC(F)(F)c1ccc(COc2ncncc2Oc2ccccc2)cc1`: 56 to 57 °C. As to `CCn1c(=O)c2[nH]c(/C=C/c3cccc(OC(F)(F)F)c3)nc2n(CC)c1=O`, the melting point was 266 to 267 °C. The same measure for `ClCc1coc(-c2ccc(Cl)o2)n1`: 107 to 108 °C; for `Nc1nc2ccccc2c2c1nc(CO)n2CC1CCOCC1`: 239 to 241 °C. The same measure for `C=CCOc1cc(OC(=S)N2CCSC2)ccc1Cl`: 104 to 106 °C; for `OCc1cnoc1-c1ccc(-c2ccccc2)cc1`: 108 to 110 °C; for `CCN1C(=O)C(=C2Oc3ccccc3N2CC)SC1=S`: 165 to 166 °C. The same measure for `COC(=O)C(C)(C)C(O)CCOc1cc(C)ccc1C` (stereo unspecified): 40.5 to 41 °C; for `Nc1ccc(S(=O)(=O)Nc2ccn(C3CCCCC3)c(=O)n2)cc1`: 100 to 120 °C. In turn, `OC1(CC2CO2)c2ccccc2CCc2ccccc21` (stereo unspecified) yielded a melting point of 116 to 118 °C. The same measure for `CNCCNc1noc2cc(OC)ccc12`: 136 to 137 °C; for `Cc1cn(C)c2c(OCc3ccccc3)cc3c(c12)[C@H](CO)CN3C(=O)OC(C)(C)C`: 138 to 140 °C. The same measure for `CCCC(=O)NS(=O)(=O)c1ccc(NC(=O)N2CCc3c(OC)ccc(N4CCN(C)CC4)c3C2)cc1`: 185 to 190 °C; for `Nc1c(Br)cc(S(N)(=O)=O)cc1C(F)(F)F`: 248 to 252 °C; for `CCOC(=O)c1cc2n(c1)C(C)N(C(=O)OCC)c1ccccc1-2` (stereo unspecified): 125 to 127 °C.

Compound `O=C(NCC(O)(Cn1cncn1)c1ccc(Cl)cc1Cl)c1cccnc1` (stereo unspecified) showed a melting point of 175 °C. The same measure for `O=C(O)C1Nc2ccccc2-c2c([N+](=O)[O-])cnn21` (stereo unspecified): 203 to 205 °C; for `CC(=O)NC1CCN(CCCOc2ccc3c4c(c(=O)oc3c2)CCCC4)CC1`: 90 to 92 °C. The same measure for `Oc1ccc(Cc2noc3cc(O)ccc23)cc1`: 178 °C; for `COC(=O)C1C(C(OC(=S)Oc2ccc(C)cc2)C(C)C)C1(C)C` (stereo unspecified): 92 to 93 °C. The same measure for `COc1cc2c3c(cccc3c1)C(=O)N(O)C2=O`: 236 to 239 °C. As for `O=C(NCCCCN1CCC(c2c[nH]c3ccccc23)CC1)c1ccc(-c2ccc(C(F)(F)F)cc2)c(CO)c1`, the melting point was found to be 177 °C. The same measure for `CCOC(=O)Cc1ccc(Nc2ccnc(Nc3cc(OC)c(OC)c(OC)c3)n2)cc1`: 143 to 144 °C. The same measure for `O=C(O)c1nc2ccc(O)cc2[nH]1`: 206 to 207 °C; for `Cc1ccc(C2=NCCN2C(=O)Nc2ccccc2)cc1C`: 139 to 142 °C; for `O=C(Nc1c(F)cccc1F)c1ccc(-n2nc(C(F)(F)F)cc2C2CC2)nc1`: 192 to 194 °C. As to `CCOC(=O)CN(C)C(=O)CCN(C(=O)c1ccc(Cl)cc1)c1ccc(OC)cc1`, the melting point lay in the range of 104 to 106 °C. The same measure for `CCOC(=O)N1CCc2c(nc3ccccc3c2C)C(Cl)C1` (stereo unspecified): 131 °C. The same measure for `Fc1ccc(-c2nc3ccccc3nc2-c2ccc(F)cc2)cc1`: 132 °C; for `O=c1[nH]c2cc(Cl)ccc2n1C1CCN(CC2=NOC(c3ccc(F)cc3)C2)CC1` (single isomer, unassigned; (-)): 143 to 145 °C. The same measure for `CC(C)N1Cc2cccnc2N(c2ccccc2)C1=O`: 164 to 165 °C. `CC(C)(C)n1cc(-c2ccc(I)cc2)c2c(N)ncnc21` displayed a melting point of 188 to 189 °C. The same measure for `O=c1[nH]c2c(Cl)cccc2c(=O)o1`: 225 to 230 °C. `CC(C)(C)c1cc(C(=O)c2cccnc2)cc(C(C)(C)C)c1O` yielded a melting point of 144 °C. The same measure for `Cc1cc(C(=O)O)ccc1-c1cnc2[nH]c(=O)n(CC3CCCCC3)c2n1`: 244 to 247 °C; for `COc1ccc2c(c1)CCN(C(C)=O)CC2`: 89 to 90 °C. Take `OC(CNCCCCCCOCCCCc1ccccc1)c1cc(OCc2ccccc2)cc(OCc2ccccc2)c1` (stereo unspecified): the melting point lay in the range of 65 to 67 °C. The same measure for `Fc1ccc(Nc2ncnc3cnc(N4CCN(c5ccncc5)CC4)nc23)cc1Cl`: 248 to 250 °C. Consider `CC1(C)C=C(N2Cc3ccccc3C2=O)c2cc(S(=O)(=O)C(F)(F)F)ccc2O1`, for which the melting point is 110 to 115 °C. The same measure for `CC1CC2(CN(O)C2=O)c2cc(F)ccc2O1` (stereo unspecified): 118 to 120 °C. The compound `CN(C(=O)C1CCCCC1)c1cccc(-c2nc(=O)c3ccccc3s2)n1` gave a melting point of 184 to 186 °C. The same measure for `COC(=O)C1CCC2C(CCC3C(C)(C)CCCC23C)C(=O)C1` (stereo unspecified): 67 to 68 °C. The same measure for `NC(=O)Cc1ccc2c(c1)CCc1cccnc1O2`: 164 to 165 °C; for `Cc1ncc2cc(Cl)nc(Cl)n12`: 134 to 135 °C.

As to `CCOC(=O)c1cnccc1CSc1nc(C)c(CC(=O)O)s1`, the melting point is 139 to 141 °C.

`CSc1cc2c(cc1C(F)(F)F)N(C(=O)Nc1cccc(C(=O)Nc3cccnc3)c1)CC2`: the melting point was 195 to 197 °C.

`CCc1ccc(C=CC(=O)NN2CC(=O)NC2=O)cc1Cl` showed a melting point of 231 to 234 °C. The same measure for `Clc1cccc(CNc2n[nH]c3ncnc(Nc4cccc(Cl)c4)c23)c1`: 158 to 163 °C; for `NS(=O)(=O)c1ccc(CCCCCO)s1`: 65 to 67 °C; for `CCN1c2ncc(CCc3ccnc(CO)c3)cc2C(=O)N(C)c2ccc(Cl)nc21`: 133 to 134 °C. In turn, `CN1C(=O)c2cscc2N(C)c2ccccc21` registered a melting point of 101 to 102 °C. The same measure for `CNc1cccc(-c2ccnc3c(C(=O)c4cccs4)cnn23)c1`: 188 to 190 °C; for `CC(C)C(=O)Nc1cc([N+](=O)[O-])cc([N+](=O)[O-])c1`: 157 to 159 °C; for `CNC(=S)NCCSCc1c[nH]cn1`: 96 to 98 °C.

For the compound `O=c1[nH]c2cc(Cl)ccc2c(O)c1-c1cccc2ccccc12`, the melting point is over 350 °C. The same measure for `O[C@H](COc1cccc2[nH]ccc12)CN1CCC(c2c[nH]c3c(Cl)c(Cl)ccc23)CC1`: 192 to 197 °C; for `CN(CCO)c1nccc(NC(N)=NCC(F)(F)F)n1`: 158 to 160 °C.
